Measurements taken from US9572812B2, “Compositions and methods involving polymer, solvent, and high viscosity liquid carrier material” (DURECT CORPORATION, priority 2013, dated 2017).

Tests used:
[1] = Risperidone solubility in vehicle / solvent; assay type: physicochemical; details: NMP versus PC
[2] = Density and viscosity of placebo vehicle and formulation; assay type: physicochemical
Source text: Formulation No. R66 consisted of SAIB/NMP/PLGA/RSP in the following weight proportion: 45.5/27.3/18.2/9.0. Formulation No. R131 consisted of SAIB/PC/PLGA/RSP in the following weight proportions 40.0/33.7/17.3/9.0. It should be noted that Formulation Nos. […] and […] were formulated to yield approximately the same viscosity (see below Table). However, to achieve similar viscosities, more PC must be added to the vehicle, with a corresponding decrease in SAIB (and a minor decrease in PLGA). [table] The difference in the above-noted settling versus the difference in vehicle density is notable. As shown in the first Table of this Example, the viscosity of the placebo vehicle for Formulation No. R66 at 5° C. is slightly higher than the viscosity of the placebo vehicle for Formulation No. R131 at 5° C. […] R131

For `Cc1nc2n(c(=O)c1CCN1CCC(c3noc4cc(F)ccc34)CC1)CCCC2` [risperidone], the “risperidone solubility in solvents” value [1] was “higher solubility in NMP than in PC” and the density of risperidone [2] was 1.30 g/mL.
